From ChEMBL document CHEMBL1130419, “8-(1H-imidazol-1-yl)-7-nitro-4(5H)-imidazo[1,2-alpha]quinoxalinone and related compounds: synthesis and structure-activity relationships for the AMPA-type non-NMDA receptor” (J Med Chem, 1997)
pIC50, pKi: −log10 of the molar value.

Key:
[1] = molecular target: T1, Glutamate receptor ionotropic, AMPA (Rattus norvegicus, UniProt P19490+P19491+P19492+P19493); assay: Inhibition of [3H]AMPA binding to Ionotropic glutamate receptor from rat whole brain.
Rattus norvegicus [2] = organism: Rattus norvegicus; assay: The compound was tested for anti-KA-Induced Neurotoxicity in rat primary hippocampal cultures.; assay type: functional; conditions: Hippocampus
Glutamate NMDA receptor [3] = assay: The compound was tested for its ability to inhibit [3H]Gly binding to N-methyl-D-aspartate glutamate receptor from rat whole brain.
Glutamate NMDA receptor [4] = assay: The compound was tested for its ability to inhibit [3H]Glu binding to N-methyl-D-aspartate glutamate receptor from rat whole brain.
[5] = molecular target: T1, Glutamate receptor ionotropic, AMPA; assay: The compound was tested for its ability to inhibit [3H]AMPA binding to Ionotropic glutamate receptor AMPA from rat whole brain
Rattus norvegicus [6] = organism: Rattus norvegicus; assay: The compound was tested for anti-KA-Induced Neurotoxicity in rat primary hippocampal cultures; assay type: functional; conditions: Hippocampus
Glutamate NMDA receptor [7] = assay: The compound was tested for its ability to inhibit [3H]Gly binding to N-methyl-D-aspartate glutamate receptor from rat whole brain

Row | SMILES | pKi [1] | further results
1 | Cc1nnc2c(O)nc3cc([N+](=O)[O-])c(-n4ccnc4)cc3n12 | 7.02 | –
2 | Oc1nc2cc(C(F)(F)F)c(-n3ccnc3)cc2n2ccnc12 | 7.18 | pIC50 (Rattus norvegicus [2]): 6.49
3 | Cc1nccn1-c1cc2nc(O)c(O)nc2cc1[N+](=O)[O-] | 6.41 | –
4 | CCc1cnc2c(O)nc3cc([N+](=O)[O-])c(-n4ccnc4)cc3n12 | 7.70 | –
5 | O=C1Nc2cc(-n3ccnc3)c([N+](=O)[O-])cc2C1=O | < 4.00 | –
6 | O=[N+]([O-])c1cc2nc(O)c3nccn3c2cc1-n1ccnc1 | 7.24 | pKi (Glutamate NMDA receptor [3]): < 3.52; pIC50 (Rattus norvegicus [2]): 6.52; pKi (Glutamate NMDA receptor [4]): < 3.52
7 | CCc1nnc2c(O)nc3cc([N+](=O)[O-])c(-n4ccnc4)cc3n12 | 7.32 | –
8 | CCC1CN=C2C(=O)Nc3cc([N+](=O)[O-])c(-n4ccnc4)cc3N21 (configuration not stated) | 6.82 | –
9 | CCCc1nnc2c(O)nc3cc(-n4ccnc4)c([N+](=O)[O-])cc3n12 | 5.18 | –
10 | CCCc1nnc2c(O)nc3cc([N+](=O)[O-])c(-n4ccnc4)cc3n12 | – | pKi [5]: 7.00
11 | CCCn1c(=O)c(=O)[nH]c2cc([N+](=O)[O-])c(-n3ccnc3)cc21 | 6.89 | –
12 | O=[N+]([O-])c1cc2nc(O)c3nncn3c2cc1-n1ccnc1 | 6.72 | –
13 | CCCCc1nnc2c(O)nc3cc([N+](=O)[O-])c(-n4ccnc4)cc3n12 | – | pKi [5]: 7.15
14 | O=c1[nH]c2cc([N+](=O)[O-])c(-n3ccnc3)cc2n(O)c1=O | – | pIC50 (Rattus norvegicus [6]): 6.51; pKi (Glutamate NMDA receptor [7]): 5.38
15 | Cc1nccn1-c1cc2c(cc1[N+](=O)[O-])nc(O)c1ncc(C)n12 | < 5.00 | –
16 | NS(=O)(=O)c1cccc2c1c([N+](=O)[O-])cc1nc(O)c(O)nc12 [NBQX] | – | pIC50 (Rattus norvegicus [2]): 6.42
17 | O=c1[nH]c2cc(-n3ccnc3)c([N+](=O)[O-])cc2[nH]c1=O [YM-90K] | – | pIC50 (Rattus norvegicus [2]): 6.09
